Results on 5 compounds are retold here after patent US10717749B2, “Macrocyclic sulfondiimine compounds” (BAYER PHARMA AKTIENGESELLSCHAFT, priority 2015, dated 2020).

In data set [1] the test system is rat hepatocytes. Nature of the data set: In vitro metabolic stability in rat hepatocytes. Type of data set: in vitro ADME. As to conditions: 1 μM. How it is done: (§1) Caco-2 cells (purchased from DSMZ Braunschweig, Germany) were seeded at a density of 4.5×10^4 cells per well on 24 well insert plates, 0.4 µm pore size, and grown for 15 days in DMEM medium supplemented with 10% fetal bovine serum, 1% GlutaMAX (100×, GIBCO), 100 U/mL penicillin, 100 μg/mL streptomycin (GIBCO) and 1% non essential amino acids (100×). Cells were maintained at 37° C. in a humified 5% CO2 atmosphere. Medium was changed every 2-3 day. Before running the permeation assay, the culture medium was replaced by a FCS-free hepes-carbonate transport buffer (pH 7.2). For assessment of monolayer integrity the transepithelial electrical resistance (TEER) was measured. Test compounds were predissolved in DMSO and added either to the apical or basolateral compartment in final concentration of 2 μM in transport buffer. Before and after 2 h incubation at 37° C. samples were taken from both compartments. Analysis of compound content was done after precipitation with methanol by LC/MS/MS analysis. Permeability (Papp) was calculated in the apical to basolateral (A→B) and basolateral to apical (B→A) directions. The apparent permeability was calculated using following equation: Papp=(Vr/Po)(1/S)(P2/t) Where Vr is the volume of medium in the receiver chamber, Po is the measured peak area or height of the test drug in the donor chamber at t=o, S the surface area of the monolayer, P2 is the measured peak area of the test drug in the acceptor chamber after 2 h of incubation, and t is the incubation time. The efflux ratio basolateral (B) to apical (A) was calculated by dividing the Papp B-A by the Papp A-B. In addition the compound recovery was calculated. 6. Investigation of In Vitro Metabolic Stability in Rat Hepatocytes
Hepatocytes from Han Wistar rats were isolated via a 2-step perfusion method. After perfusion, the liver was carefully removed from the rat: the liver capsule was opened and the hepatocytes were gently shaken out into a Petri dish with ice-cold Williams medium E (purchased from Sigma Aldrich Life Science, St Louis, Mo.). The resulting cell suspension was filtered through sterile gaze in 50 ml falcon tubes and centrifuged at 50×g for 3 min at room temperature. The cell pellet was resuspended in 30 ml WME and centrifuged through a Percoll® gradient for 2 times at 100×g. […] Cell viability was determined by trypan blue exclusion. […] Samples were frozen at −20° C. over night, after subsequently centrifuged for 15 minutes at 3000 rpm and the supernatant was analyzed with an Agilent 1200 HPLC-system with LCMS/MS detection.
The half-life of a test compound was determined from the concentration-time plot. From the half-life the intrinsic clearances were calculated.

Data set [2] can be described thus: Caco-2 permeation assay. As to conditions: human, Caco-2, pH 7.2, test compound 2 μM; for efflux ratio at 2 h, 2 μM: read-out: Efflux ratio (Papp B-A/Papp A-B); for Papp A→B at 2 h, 2 μM: read-out: Papp A-B (Mari); for Papp B→A at 2 h, 2 μM: read-out: Papp B-A (Mari). The format is in vitro ADME. The method, then:
5. Caco-2 Permeation Assay:
as §1
Background: Caco-2 monolayers are a common model of the intestinal barrier.

Data set [3] in a line: In vivo pharmacokinetics in rats. As to conditions: male, Wistar, rat, plasma, iv; i.v. bolus dosing to rats; read-out: t1/2: terminal half-life (converted). How it is done:
7. In Vivo Pharmacokinetics in Rats
For in vivo pharmacokinetic experiments test compounds were administered to male Wistar rats intravenously at doses of 0.3 to 1 mg/kg formulated as solutions using either rat plasma or solubilizers such as PEG400 in well-tolerated amounts.
For pharmacokinetics after intravenous administration test compounds were given as i.v. bolus and blood samples were taken at 2 min, 8 min, 15 min, 30 min, 45 min, 1 h, 2 h, 4 h, 6 h, 8 h and 24 h after dosing. […] Blood was collected into Lithium-Heparin tubes (Monovetten®, Sarstedt) and centrifuged for 15 min at 3000 rpm. An aliquot of 100 μL from the supernatant (plasma) was taken and precipitated by addition of 400 μL ice cold acetonitrile and frozen at −20° C. over night. Samples were subsequently thawed and centrifuged at 3000 rpm, 4° C. for 20 minutes. Aliquots of the supernatants were taken for analytical testing using an Agilent 1200 HPLC-system with LCMS/MS detection. PK parameters were calculated by non-compartmental analysis using a PK calculation software. […]

The Papp A→B is how fast a substance crosses the layer from the apical side. A word on the Papp B→A: it is how fast a substance crosses the layer from the basolateral side. As for `CS(=N)(=N)Cc1cc2cc(c1)OCCCCOc1cc(F)ccc1-c1nc(ncc1F)N2` [Example 5, 16,20-difluoro-9-[(S-methylsulfonodiimidoyl)methyl]-2,3,4,5-tetrahydro-12H-13,17-(azeno)-11,7-(metheno)-1,6,12,14-benzodioxadiazacyclononadecine], the “maximal calculated oral bioavailability (Fmax) based on stability data in rat hepatocytes” value (shortened to “maximal calculated oral bioavailability”) in data set [1] is on record as 93%. Also, in data set [2], the efflux ratio at 2 h, 2 μM was 5; the Papp A→B at 2 h, 2 μM turned out to be 4.82 ×10⁻⁶ cm/s; the apparent permeability from basolateral to apical (Papp B→A) at 2 h, 2 μM came to 24.1 ×10⁻⁶ cm/s. The half-life in data set [3] is 6.9 h.

As to `CS(=N)(Cc1cc2nc(c1)OCCCOc1cc(F)ccc1-c1cc(ncc1F)N2)=NCCCO` (racemic) [Example 2, (rac)-3-(2-{[15,19-difluoro-3,4-dihydro-2H,11H-10,6-(azeno)-12,16-(metheno)-1,5,11,13-benzodioxadiazacyclooctadecin-8-yl]methyl}-2-methyl-2λ^6-diazathia-1,2-dien-1-yl)propan-1-ol], in data set [1], the “maximal calculated oral bioavailability” value is reported as 58%. In data set [2], the efflux ratio at 2 h, 2 μM is 23.2; the Papp A→B at 2 h, 2 μM was 0.99 ×10⁻⁶ cm/s; the Papp B→A at 2 h, 2 μM is 22.9 ×10⁻⁶ cm/s.

Regarding `CS(=N)(=N)Cc1cc2cc(c1)OCCCCOc1c(ccc(F)c1F)-c1nc(ncc1F)N2` [Example 6, 16,20,21-trifluoro-9-[(S-methylsulfonodiimidoyl)methyl]-2,3,4,5-tetrahydro-12H-13,17-(azeno)-11,7-(metheno)-1,6,12,14-benzodioxadiazacyclononadecine], in data set [2], the efflux ratio at 2 h, 2 μM turned out to be 4.8; the Papp A→B at 2 h, 2 μM turned out to be 4.64 ×10⁻⁶ cm/s; the Papp B→A at 2 h, 2 μM turned out to be 22.3 ×10⁻⁶ cm/s.

On to `CS(=N)(=N)Cc1cc2nc(c1)OCCCOc1cc(F)ccc1-c1cc(ncc1F)N2` [Example 1, 15,19-difluoro-8-[(S-methylsulfonodiimidoyl)methyl]-3,4-dihydro-2H,11H-10,6-(azeno)-12,16-(metheno)-1,5,11,13-benzodioxadiazacyclooctadecine], for which, in data set [1], the “maximal calculated oral bioavailability” value is 76%. Also, in data set [2], the efflux ratio at 2 h, 2 μM amounted to 1.4; the Papp A→B at 2 h, 2 μM is 6.24 ×10⁻⁶ cm/s; the Papp B→A at 2 h, 2 μM worked out at 8.92 ×10⁻⁶ cm/s. Also, the half-life in data set [3] is 3.4 h.

With `CN=S(C)(=N)Cc1cc2cc(c1)OCCCCOc1cc(F)ccc1-c1nc(ncc1F)N2` (racemic) [Example 10, (rac)-9-[(N,S-dimethylsulfonodiimidoyl)methyl]-16,20-difluoro-2,3,4,5-tetrahydro-12H-13,17-(azeno)-11,7-(metheno)-1,6,12,14-benzodioxadiazacyclononadecine], the “maximal calculated oral bioavailability” value in data set [1] is 46%.
